“Also recorded” adds a separate entry of the source.
Assays:
Aβ40 [1] = experiment: Aβ40 in APP23 mouse CSF; type: in vivo; details: APP23 mice; for CSF Aβ40 Mean ± SEM: 6 months
Description: Mouse CSF samples (3 μl) was diluted with 57 μL 1% Blocker A (MSD) and 25 μl were applied to the assay plate.
CSF was collected from all mice at necropsy. Samples from the baseline group were stored for approximately 6 months, and analyzed together with the rest of the samples at the end of the study. […] The reason for the high baseline values is currently not known. It is hypothesized that this is an effect of long term storage, when dissociation of oligomeric forms of Aβ may lead to higher monomeric concentrations. CSF Aβ, more than Triton TX-100 solubilized Aβ from brain extracts, represents the steady-state concentration of soluble amyloid-β that directly responds to changes in Aβ generation.

[2] = Drug-drug interaction study: PK of Compound 1 with the strong CYP3A4 inhibitor itraconazole; type: in vivo, human; details: healthy volunteers, with itraconazole 200 mg q.d. vs Compound 1 alone
Aβ38 = experiment: 3-month dose-ranging study: Aβ38 in CSF; type: in vivo, human
Text: This study is listed in ClinicalTrials.gov under the NCT02576639 Identifier code.
The primary purpose of this study was to expand on previous safety and tolerability data obtained over 2-week and 4-week duration in the first in human study and thereby allow initiation of future long-term efficacy trials in subjects at risk of AD. In addition, data relevant for Pharmacokinetic/Pharmacodynamic modeling was obtained in order to support dose selection decisions for future efficacy studies.

Aβ42 = experiment: Formic acid soluble Aβ42 in APP23 mouse forebrain; type: in vivo
Description: (§1) Frozen mouse forebrains were weighed and homogenized in 9 volumes (w/v) of ice-cold TBS-Complete (20 mM Tris-HCl pH 7.4, 137 mM NaCl, 1× Complete [Protease Inhibitor Cocktail Tablets: 1 836 145, Roche Diagnostics GmbH, Penzberg, Germany]) by sonication (90% duty cycle, output control 5, 40-55 pulses, [Sonifier 450, Branson]). After homogenization several 50 μl aliquots were prepared for analysis and were stored at −80° C.
Fifty microliter of forebrain homogenate was mixed with 116.6 μl 100% formic acid, resulting in a final formic acid concentration of 70%. Samples were stored on ice and vortexed every 5 minutes. For neutralization, 50 μl of the mixture were pipetted into a new tube, and 950 μl of 1 M Tris base, containing 1× Complete Protease inhibitor, was added. Tubes were stored at room temperature overnight and then centrifuged for 15 minutes at 14000 rpm in an Eppendorf Microzentrifuge at 4° C. From the top layer, 100 μl are removed and mixed with 100 μl of 3% Blocker A solution (part of the MesoScale assay kit). This sample was either directly applied to the assay plate (dilution 1:1332) or further diluted in 1% Blocker A solution.

Aβ40 [3] = experiment: Acute PK/PD in APOE4-TR mice: Aβ40 in brain; type: in vivo, mouse; details: for Average Aβ40 brain ± SD: n = 6; for Aβ40 reduction vs vehicle, range over the doses: APOE4-TR mice, 3, 10 and 30 μmol/kg
Description: Compound 1 was formulated as a suspension. Vehicle or compound was given by oral administration in a volume of 10 ml/kg once. Vehicle: 0.1% Tween80 in 0.5% Methylcellulose in water.
as §1
Endogenous Aβ40 in mice was determined with the Meso Scale Discovery (MSD) 96-well MULTI-ARRAY human/rodent (4G8) Aβ40 Ultrasensitive Assay (#K110FTE-3, Meso Scale Discovery, Gaithersburg, USA). The assay was performed according to the manufacturer's instructions except for the calibration curve and the sample preparations. TritonX-100 (TX-100) soluble Aβ40 was extracted from forebrain with 1% TX-100 using a 50 μl aliquot of each 1:10 forebrain homogenate, mixed with 50 μl 2% TX-100 in TBS complete (20 mM Tris-HCl pH 7.4, 137 mM NaCl, 1× Complete [Protease Inhibitor Cocktail Tablets: 1 836 145, Roche Diagnostics GmbH, Penzberg Germany]) to reach a final concentration of 1% TX-100 and a 1:20 forebrain dilution. The samples were incubated for 15 min on ice and vortexed every 5 min. The samples were ultra-centrifuged (100000×g, 4° C., 15 min) and 50 μl of the clear supernatants were transferred to fresh tubes. For the Aβ40 assay the supernatants were further diluted 1:5 in 3% Blocker A solution (from kit) to a final forebrain dilution of 1:100 and applied to the plate.
The calibration curve was prepared in a corresponding dilution of 1% Blocker A solution spiked with synthetic Aβ1-40 peptide (1.56-100 pg/ml) except for non-transgenic mouse brain samples: In this case, the calibration curve was prepared in a correspondingly diluted APP knockout mouse forebrain spiked with synthetic Aβ1-40 peptide (1.56-100 pg/ml). For all samples and standards 25 μl were applied per well. For each determination duplicate wells were done. The mean values from the duplicate wells were used for calculations.

C57BL/6 mice = experiment: Fur colour scoring, chronic 8-week dosing in wild-type mice; type: in vivo, mouse; details: 8 and 50 μmol/kg p.o. once daily, 8 weeks
Description: Compound 1 and NB-360 were formulated as a suspension. […] Vehicle: […] in 0.5% methylcellulose in water.
Body weight was taken 3 times per week (Monday, Wednesday, Friday). Subjective scoring of any hair colour changes was performed once weekly (Wednesday). Scores (% of body with grey fur): 0: No change; 1: Spots; 2: >30%; 3: >50%; 4: >75%; 5: 100%. Animals were photo-documented when fur color change was observed. Final fur color scoring was performed blinded and by a person not involved in the study.

[4] = APOE4-TR mice, 30 μmol/kg acute

SMILES: C[C@@]1(c2nc(NC(=O)c3ncc(C(F)(F)F)cc3Cl)ccc2F)CO[C@@](C)(C(F)(F)F)C(N)=N1 [Compound 1, N-(6-((3R,6R)-5-amino-3,6-dimethyl-6-(trifluoromethyl)-3,6-dihydro-2H-1,4-oxazin-3-yl)-5-fluoropyridin-2-yl)-3-chloro-5-(trifluoromethyl)picolinamide]
- CSF Aβ40 Change vs vehicle (Aβ40 [1]; 0.03 g/kg food): −8.6%
- CSF Aβ40 Mean ± SEM (Aβ40 [1]; 0.03 g/kg food): 31.2 ± 2.11 ng/mL
- CSF Aβ40 Change vs vehicle (Aβ40 [1]; 0.3 g/kg food): −54.3%
- CSF Aβ40 Mean ± SEM (Aβ40 [1]; 0.3 g/kg food): 15.6 ± 1.8 ng/mL
- increase of mean AUC of Compound 1 [2]: 2-3 fold
- increase of mean Cmax of Compound 1 [2]: 25%
- Aβ38 in CSF percent change from baseline, Difference (90% CI) Cmpd 1-Placebo (Aβ38; month 3, 2 mg QD): −18.17 (−21.49, −14.85) %
- Aβ38 in CSF percent change from baseline, LSmean (SE) (Aβ38; month 3, 2 mg QD): −20.58 (1.397) %
- Aβ38 in CSF percent change from baseline, Difference (90% CI) Cmpd 1-Placebo (Aβ38; month 3, 10 mg QD): −60.18 (−63.54, −56.83) %
- Aβ38 in CSF percent change from baseline, LSmean (SE) (Aβ38; month 3, 10 mg QD): −62.60 (1.430) %
- Aβ38 in CSF percent change from baseline, Difference (90% CI) Cmpd 1-Placebo (Aβ38; month 3, 35 mg QD): −80.55 (−83.83, −77.27) %
- Aβ38 in CSF percent change from baseline, LSmean (SE) (Aβ38; month 3, 35 mg QD): −82.96 (1.366) %
- Aβ38 in CSF percent change from baseline, Difference (90% CI) Cmpd 1-Placebo (Aβ38; month 3, 85 mg QD): −86.81 (−90.22, −83.41) %
- Aβ38 in CSF percent change from baseline, LSmean (SE) (Aβ38; month 3, 85 mg QD): −89.23 (1.470) %
- Formic acid soluble Aβ42 change vs vehicle (Aβ42; APP23, 0.03 g/kg vs vehicle): −16.3%
- Formic acid soluble Aβ42 change vs vehicle (Aβ42; APP23, 0.3 g/kg vs vehicle): −86.2%
- Mini AUEC (brain Aβ40) (Aβ40 [3]; APOE4-TR mice, 3 μmol/kg acute): 32%
- Average Aβ40 brain ± SD (Aβ40 [3]; APOE4-TR mice, 3 μmol/kg acute p.o., 4 h): 0.114 ± 0.024 pmol/g
- Average Aβ40 brain ± SD (Aβ40 [3]; APOE4-TR mice, 3 μmol/kg acute p.o., 24 h): 0.160 ± 0.033 pmol/g
- % reduction vs vehicle (brain Aβ40) (Aβ40 [3]; APOE4-TR mice, 3 μmol/kg acute, 4 h): 43%
- % reduction vs vehicle (brain Aβ40) (Aβ40 [3]; APOE4-TR mice, 3 μmol/kg acute, 24 h): 20%
- Mini AUEC (brain Aβ40) (Aβ40 [3]; APOE4-TR mice, 10 μmol/kg acute): 47%
- Average Aβ40 brain ± SD (Aβ40 [3]; APOE4-TR mice, 10 μmol/kg acute p.o., 4 h): 0.074 ± 0.014 pmol/g
- Average Aβ40 brain ± SD (Aβ40 [3]; APOE4-TR mice, 10 μmol/kg acute p.o., 24 h): 0.139 ± 0.041 pmol/g
- % reduction vs vehicle (brain Aβ40) (Aβ40 [3]; APOE4-TR mice, 10 μmol/kg acute, 4 h): 63%
- % reduction vs vehicle (brain Aβ40) (Aβ40 [3]; APOE4-TR mice, 10 μmol/kg acute, 24 h): 31%
- Mini AUEC (brain Aβ40) (Aβ40 [3]; [4]): 72%
- maximal effect on Aβ reduction in the brain (Aβ40 [3]; [4]): > 70%
- Average Aβ40 brain ± SD (Aβ40 [3]; APOE4-TR mice, 30 μmol/kg acute p.o., 4 h): 0.046 ± 0.006 pmol/g
- Average Aβ40 brain ± SD (Aβ40 [3]; APOE4-TR mice, 30 μmol/kg acute p.o., 24 h): 0.068 ± 0.021 pmol/g
- % reduction vs vehicle (brain Aβ40) (Aβ40 [3]; APOE4-TR mice, 30 μmol/kg acute, 4 h): 77%
- % reduction vs vehicle (brain Aβ40) (Aβ40 [3]; APOE4-TR mice, 30 μmol/kg acute, 24 h): 66%
- Aβ40 reduction vs vehicle, range over the doses (Aβ40 [3]; 4h): 43-77%
- Aβ40 reduction vs vehicle, range over the doses (Aβ40 [3]; 24h): 20-66%
- fur colour change (C57BL/6 mice): no apparent fur color change detectable; also recorded: did not show signs of hair discoloration
